Test results from patent publication US20110059081A1, “METHODS AND COMPOSITIONS FOR THE TREATMENT OF RECEPTOR TYROSINE KINASE MEDIATED DISEASES OR DISORDERS” (QUINTILES TRANSNATIONAL CORP., priority 2009, published 2011).

Tests used:
Format in all cases: cell-based
mutant Ras = test: Immunocytochemistry staining for RAS in A549 lung tumor cells; conditions: A549 lung tumor cell line, 1.0 micromolar, 48 hours
Procedure: In an exemplary method, the A549 lung tumor cell line was treated for 48 hours with 1.0 micromolar Methotrexate followed by immunocytochemistry staining for RAS on slides.

MAPK signaling (pErk1/2) = test: Western blot of pErk1/2 (MAPK signaling) in A549 cells treated with Methotrexate, with or without EGF; conditions: as little as 1.0 μM for 24 hours, then serum starvation 48 hours, with or without 10 ng/ml EGF for final 10 minutes (FIG. 3)
Procedure: Additionally, in vitro cell signaling studies were conduced to examine MAPK signaling in RAS mutant cells treated with Methotrexate. For Methotrexate treatments, A549 lung tumor cells were treated with 1.0 or 10.0 μM Methotrexate in full serum media for 24 hours followed by withdrawal of Methotrexate and serum starvation (1.0% FBS) for 48 hours in the absence or presence of 10 ng/ml EGF added for the final 10 minutes before harvest of the cells. Next, whole cell extracts were isolated for Western blot analysis of pErk1/2 and pAkt. The presence of β-actin served as an internal control for loading differences between lanes.

[1] = test system: MAPK signaling (pAKT, pErk1/2); test: Western blot of pAKT and pErk1/2 in KRAS mutant A549 cells treated with EGF, Methotrexate, C225 or combination
Procedure: For Methotrexate treatments, A549 lung tumor cells were treated with 1.0 μM Methotrexate in full serum media for 24 hours followed by withdrawal of Methotrexate and serum starvation (1.0% FBS) for 48 hours in the absence or presence of 5 ng/ml EGF added for the final 10 minutes before harvest of the cells.

| Compound | overall abundance of mutant Ras (mutant Ras; vs untreated cells (FIGS. 1 and 2)) | localization of mutant Ras (mutant Ras; vs untreated cells (diffuse and at the membrane)) | basal and EGF-induced pErk1/2 levels (MAPK signaling (pErk1/2)) | inhibition of pErk1/2 ([1]; EGF stimulation (5 ng/ml), agent alone: 1.0 μM Methotrexate or C225 up to 25 μg/ml) | amount of detectable pAKT and pErk1/2 ([1]; agent by itself (FIG. 4)) | activation of the MAPK pathway (pErk1/2 induction) ([1]; EGF stimulation 5 ng/ml for final 10 minutes) |
| --- | --- | --- | --- | --- | --- | --- |
| CN(Cc1cnc2nc(N)nc(N)c2n1)c1ccc(C(=O)N[C@@H](CCC(=O)O)C(=O)O)cc1 [Methotrexate] | diminished | mislocalization from the plasma membrane resulting in highly cytoplasmic staining of mutant Ras | reduced both basal and EGF-induce pErk1/2 levels | only slightly inhibited | slight reduction | – |
| EGF: epidermal growth factor used to stimulate A549 cells (NSDSECPLSHDGYCLHDGVCMYIEALDKYACNCVVGYIGERCQYRDLKWWELR; Epidermal growth factor; UniProt P01133 971-1023, looked up) | – | – | – | – | – | potently activated |
